Measured values as given in article PMC6816037 (Computational and Structural Biotechnology Journal, 2019).

Biological target: XIAP-BIR3 (Homo sapiens, UniProt P98170)
Assay: surface plasmon resonance
Type: binding

Sequence of XIAP-BIR3 (P98170 241-356 limits assumed): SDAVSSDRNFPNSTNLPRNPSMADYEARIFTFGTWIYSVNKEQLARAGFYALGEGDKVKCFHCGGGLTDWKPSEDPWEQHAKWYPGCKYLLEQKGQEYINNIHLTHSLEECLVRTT

- Kd: 13.3 µM
SMILES: C[C@@H]1O[C@@H](O[C@H]2[C@H](Oc3cc(O)c4c(c3)O[C@H](c3ccc(O)c(O)c3)CC4=O)O[C@H](CO)[C@@H](O)[C@@H]2O)[C@H](O)[C@H](O)[C@H]1O [compound 10, neoeriocitrin]
